Assays:
[1] = clinical; settings: human, in vivo, iv, 1.1 g/m'2
Description: Systemic clearance in patient (6 patients) with severe renal insufficiency at 1.1 +/- 0.2 g/m'2 administered as pulse therapy with 1 hr infusion by HPLC analysis

[2] = clinical; settings: human, in vivo, iv, 1.2 g/m'2
Description: Elimination half life in patient (6 patients) with hemodialysis-dependent end-stage renal disease at 1.2 +/- 0.4 g/m'2 administered as pulse therapy with 1 hr infusion followed by hemodialysis for 3 hrs started 7 hrs post dose measured during hemodialysis treatment by HPLC analysis

[3] = Drug excretion in urine of patient (6 patients) with moderate renal insufficiency at 1.4 +/- 0.1 g/m'2 administered as pulse therapy with 1 hr infusion by HPLC analysis; settings: human, iv, 1.4 g/m'2
[4] = clinical; settings: human, in vivo, iv, 1.1 g/m'2; remark: listed apart in the source
Description: Elimination half life in patient (6 patients) with severe renal insufficiency at 1.1 +/- 0.2 g/m'2 administered as pulse therapy with 1 hr infusion by HPLC analysis

[5] = clinical; settings: human, in vivo, iv, 0.83 g/m'2
Description: Volume of distribution at steady state in patient ( 12 patients) with normal renal function at 0.83 +/- 0.05 g/m'2 administered as pulse therapy with 1 hr infusion by HPLC analysis

[6] = Drug excretion in urine of patient (6 patients) with hemodialysis-dependent end-stage renal disease at 1.2 +/- 0.4 g/m'2 administered as pulse therapy with 1 hr infusion followed by hemodialysis for 3 hrs started 7 hrs post dose measured during hemodialysis treatment by HPLC analysis; settings: human, iv, 1.2 g/m'2
[7] = Drug excretion in dialysate of patient (4 patients) with chronic renal failure at 100 mg, iv administered over 10 mins followed by hemodialysis for 4 hrs measured during hemodialysis treatment by GLC analysis; settings: human
[8] = clinical; settings: human, in vivo, iv, 0.83 g/m'2; remark: listed apart in the source
Description: Renal clearance in patient ( 12 patients) with normal renal function at 0.83 +/- 0.05 g/m'2 administered as pulse therapy with 1 hr infusion by HPLC analysis

[9] = Drug excretion in urine of patient ( 12 patients) with normal renal function at 0.83 +/- 0.05 g/m'2 administered as pulse therapy with 1 hr infusion by HPLC analysis; settings: human, iv, 0.83 g/m'2
[10] = clinical; settings: human, in vivo, iv, 0.83 g/m'2; remark: listed apart in the source
Description: Elimination half life in patient ( 12 patients) with normal renal function at 0.83 +/- 0.05 g/m'2 administered as pulse therapy with 1 hr infusion by HPLC analysis

[11] = Drug excretion in urine of patient (6 patients) with severe renal insufficiency at 1.1 +/- 0.2 g/m'2 administered as pulse therapy with 1 hr infusion by HPLC analysis; settings: human, iv, 1.1 g/m'2
[12] = Volume of distribution at steady state in patient (6 patients) with moderate renal insufficiency at 1.4 +/- 0.1 g/m'2 administered as pulse therapy with 1 hr infusion by HPLC analysis; settings: human, in vivo, iv, 1.4 g/m'2
[13] = clinical; settings: human, in vivo, iv, 1.2 g/m'2; remark: listed apart in the source
Description: Systemic clearance in patient (6 patients) with hemodialysis-dependent end-stage renal disease at 1.2 +/- 0.4 g/m'2 administered as pulse therapy with 1 hr infusion followed by hemodialysis for 3 hrs started 7 hrs post dose measured during hemodialysis treatment by HPLC analysis

[14] = clinical; settings: human, in vivo, iv, 1.4 g/m'2
Description: Elimination half life in patient (6 patients) with moderate renal insufficiency at 1.4 +/- 0.1 g/m'2 administered as pulse therapy with 1 hr infusion by HPLC analysis

[15] = clinical; settings: human, in vivo, iv, 1.4 g/m'2; remark: listed apart in the source
Description: Systemic clearance in patient (6 patients) with moderate renal insufficiency at 1.4 +/- 0.1 g/m'2 administered as pulse therapy with 1 hr infusion by HPLC analysis

[16] = clinical; settings: human, in vivo, iv, 1.2 g/m'2; remark: listed apart in the source
Description: Renal clearance in patient (6 patients) with hemodialysis-dependent end-stage renal disease at 1.2 +/- 0.4 g/m'2 administered as pulse therapy with 1 hr infusion followed by hemodialysis for 3 hrs started 7 hrs post dose measured during hemodialysis treatment by HPLC analysis

[17] = clinical; settings: human, in vivo, iv, 1.1 g/m'2; remark: listed apart in the source
Description: Renal clearance in patient (6 patients) with severe renal insufficiency at 1.1 +/- 0.2 g/m'2 administered as pulse therapy with 1 hr infusion by HPLC analysis

[18] = clinical; settings: human, in vivo, iv, 0.83 g/m'2; remark: listed apart in the source
Description: Systemic clearance in patient ( 12 patients) with normal renal function at 0.83 +/- 0.05 g/m'2 administered as pulse therapy with 1 hr infusion by HPLC analysis

[19] = Drug recovery in normal human urine
[20] = Volume of distribution at steady state in patient (6 patients) with severe renal insufficiency at 1.1 +/- 0.2 g/m'2 administered as pulse therapy with 1 hr infusion by HPLC analysis; settings: human, in vivo, iv, 1.1 g/m'2
[21] = Volume of distribution at steady state in patient (6 patients) with hemodialysis-dependent end-stage renal disease at 1.2 +/- 0.4 g/m'2 administered as pulse therapy with 1 hr infusion followed by hemodialysis for 3 hrs started 7 hrs post dose measured during hemodialysis treatment by HPLC analysis; settings: human, in vivo, iv, 1.2 g/m'2
[22] = clinical; settings: human, in vivo, iv, 1.4 g/m'2; remark: listed apart in the source
Description: Renal clearance in patient (6 patients) with moderate renal insufficiency at 1.4 +/- 0.1 g/m'2 administered as pulse therapy with 1 hr infusion by HPLC analysis

O=P1(N(CCCl)CCCl)NCCCO1 (configuration not stated) [CYCLOPHOSPHAMIDE ANHYDROUS]
clearance at 1 h [1]: 47 mL/min
half-life [2]: 438 min
dose excreted at 1 h [3]: 5.8%
half-life at 1 h [4]: 438 min
Vd at 1 h [5]: 0.49 L/kg
dose excreted [6]: 3%
dose excreted at 4 h [7]: 37%
CL renal at 1 h [8]: 14.9 mL/min
dose excreted at 1 h [9]: 19.1%
half-life at 1 h [10]: 288 min
dose excreted at 1 h [11]: 5.6%
Vd at 1 h [12]: 0.36 L/kg
clearance [13]: 64 mL/min
half-life at 1 h [14]: 384 min
clearance at 1 h [15]: 57 mL/min
CL renal at 7 h [16]: 2.1 mL/min
CL renal at 1 h [17]: 2.4 mL/min
clearance at 1 h [18]: 79 mL/min
dose excreted [19]: ≤ 25%
Vd at 1 h [20]: 0.36 L/kg
Vd [21]: 0.49 L/kg
CL renal at 1 h [22]: 3.4 mL/min
